Laboratory results published in US20260007597A1, “COMPOSITIONS AND METHODS FOR TREATMENT OF VIRUS-INDUCED AIRWAY FIBROSIS” (priority 2022, published 2026).
Entries after “also recorded” stand apart in the source; their conditions may differ.

Key:
[1] = system: Wuhan pSARS infected NHBE supernatants; type: cell-based, human
[2] = system: pSARS-2 infected NHBE cells (infection-induced cell surface shedding of profibrotic enzymes); type: cell-based, human
[3] = system: SARS-COV-2 pseudovirus (pSARS-2) infected NHBE cells; type: cell-based, human; details: inhibitor added during clotting assay (5 U/ml hirudin, 5 μM dabigatran, 5 μM argatroban), turbidity 350 nm / confocal
[4] = biological target: thrombin (Homo sapiens, UniProt P00734); type: biochemical; details: thrombin ~0.2 U/ml; stoichiometric concentration of hirudin
[5] = system: replication competent SARS-COV-2 infected NHBE cells; type: cell-based, human; details: WA-1, beta and delta strains

| Molecule | fibrin clotting step, inhibitor added post-infection [1] | fibrin clot formation, inhibitor present during the viral infection [2] | infection-induced fibrin clot formation [3] | thrombin induced fibrin clotting [4] | fibrin clotting induced by replication competent SARS-CoV-2 infection of NHBE cells [5] |
| --- | --- | --- | --- | --- | --- |
| CNC(=O)[C@H](Cc1ccccc1)NC(=O)[C@H](CC(C)C)[C@H](CSc1cccs1)C(=O)NO [BB-94, batimastat] | did not inhibit | significantly reduced; also recorded: inhibited; also recorded: reduced fibrin clot formation | – | – | – |
| CC1CNc2c(cccc2S(=O)(=O)N[C@@H](CCCNC(=N)N)C(=O)N2CC[C@@H](C)C[C@@H]2C(=O)O)C1 (stereo partly shown) [argatroban] | – | – | inhibited | – | – |
| CC1(C)SCCN(S(=O)(=O)c2ccc(Oc3ccncc3)cc2)[C@H]1C(=O)NO [prinomastat] | – | significantly reduced; also recorded: inhibited | – | – | – |
| hirudin | – | – | completely suppressed | inhibition | inhibited |
